Measured values published in patent publication US20230234941A1, “Salts of Compound and Pharmaceutical Compositions Containing the Same” (Shenzhen Forward Pharmaceuticals Co., Limited., priority 2020, published 2023).
Values after ≈ are worked out from the molar mass of the structure shown. “Also recorded” adds a separate entry of the source. Read-outs that look alike come from different tables or passages of the source.

Key:
Format in all cases: physicochemical
[1] = Chemical and physical stability of the salts at the end of the preparation
From the text: It is crucial for drug development whether the salts obtained as above have chemical and physical stability at the end of the preparation. The chemical and physical stability of the salts at the end of the preparation includes: […]

[2] = Solid storage stability test; conditions: for Original morphology / Original purity: original solid before storage; for chemical and physical stability after storage (summary): solid/25° C./60% RH/open/1 week and/or solid/60° C./closed container/1 week
Protocol: Each amorphous salt solid was weighed (two 2 mg samples were weighed for purity testing after solid storage stability study, and one 10 mg sample was weighed for XRPD testing after solid storage stability study) and placed in a glass vial. In a 25° C./60% RH solid storage stability test, the amorphous salt solid was placed in a 25° C./60% RH constant temperature and humidity chamber, and placed in the dark for 1 week (i.e. “solid/25° C./60% RH/open/1 week”), and in a 60° C. solid storage stability test, the amorphous salt solid was sealed in an oven at 60° C. and heated for 1 week in the dark (i.e. “solid/60° C./closed container/l week”). Then the sample was taken out for purity testing, crystal form detection and appearance observation, respectively.

[3] = Solid solubility test (2 h and 24 h); conditions: for solubility at 2 h: 37 °C, thermodynamic from solid; for XRPD measured at 2 h: state of sample / solid fraction
Protocol: samples were weighed for each amorphous salt solid (equivalent to 20 mg of free base), and 10 mL of the following solvents were respectively added: 0.1N HCl solution (pH 1.0), 50 mM phosphate buffer (pH 4.5), FeSSIF-V1 (pH 5.0), FaSSIF-V1 (pH 6.5) and SGF (pH 2.0), […] The suspension was then centrifuged at 37° C., the supernatant was measured for solubility by HPLC, and the solid fraction was measured for XRPD. The target solubility was at least 2 mg (based on free base)/mL.

[4] = listed as amorphous 2 eq. besylate salt
[5] = Test BS1: solid/25° C./60% RH/open/1 week
[6] = solid/60° C./closed container/1 week (Test BS1)
[7] = FaSSIF-V1 (pH 6.5) (Test ES4, partly printed ES1)
[8] = FaSSIF-V1 (pH 6.5) (Test ES4, partly printed ES1), 37° C., based on free base
[9] = Test ES1: 0.1N HCl solution (pH 1.0)
[10] = Test ES1: 0.1N HCl solution (pH 1.0), 37° C., based on free base
[11] = Test ES2: 50 mM phosphate buffer (pH 4.5)
[12] = Test ES2: 50 mM phosphate buffer (pH 4.5), 37° C., based on free base
[13] = Test ES3: FeSSIF-V1 (pH 5.0), 37° C., based on free base
[14] = Test ES5: SGF (pH 2.0), 37° C., based on free base
[15] = listed as amorphous 1 eq. maleate salt
[16] = listed as amorphous 2 eq. mesylate salt

SMILES | Purity [2, 5] | Original morphology [2] | Original purity [2] | Purity [2, 6] | pH measured at 2 h [3, 7] | Solubility measured at 2 h [3, 8] | XRPD measured at 2 h [3, 7] | pH measured at 2 h [3, 9] | Solubility measured at 2 h [3, 10] | pH measured at 2 h [3, 11] | Solubility measured at 2 h [3, 12] | XRPD measured at 2 h [3, 11] | pH measured at 2 h ([3]; Test ES3: FeSSIF-V1 (pH 5.0)) | Solubility measured at 2 h [3, 13] | XRPD measured at 2 h ([3]; Test ES3: FeSSIF-V1 (pH 5.0)) | pH measured at 2 h ([3]; Test ES5: SGF (pH 2.0)) | Solubility measured at 2 h [3, 14] | XRPD measured at 2 h ([3]; Test ES5: SGF (pH 2.0)) | XRPD measured at 2 h [3, 9] | further results
C=CC(=O)Nc1cc(Nc2ncnc(-c3cn(C)c4ccccc34)n2)c(OC)cc1N(C)CCN(C)C [Example 7] | 99.6% | amorphous | 99.6% | 99.4% | (6.1) | >2 mg/mL | clear solution | (0.8) | 1.8 mg/mL (≈ 3.6 mM) | (4.2) | >2 mg/mL | clear solution | L(4.8) | >2 mg/mL | clear solution | (1.7) | >2 mg/mL | clear solution |  | chemical and physical stability at the end of the preparation ([1]; listed as 2 eq. besylate salt): chemically and physically stable; chemical and physical stability at the end of the preparation [1, 4]: chemically and physically stable; chemical and physical stability after storage (summary) ([2]; listed as 2 eq. besylate salt): physically unstable; chemical and physical stability after storage (summary) [2, 4]: physically unstable; physical and chemical stability under storage (in words) ([2]; solid/25° C./60% RH/open/1 week, listed as amorphous 2 eq. besylate salt): slight color change and showed significant hygroscopicity (caking and fusion to a glassy state); physical and chemical stability under storage (in words) ([2]; solid/60° C./closed container/1 week, listed as amorphous 2 eq. besylate salt): good physical and chemical stability; solubility at 2 h ([3]; 0.1N HCl solution, pH 1, simulated gastric fluid, Test ES1: 0.1N HCl solution (pH 1.0), 37° C., based on free base, read-out: Solubility measured at 2 h): < 2000 µg/mL; solubility at 2 h ([3]; not achieved in some solvents / greater in various solvents, read-out: solubility in solvents that mimic physiological conditions): < 2000 µg/mL
C=CC(=O)Nc1cc(Nc2ncnc(-c3cn(C)c4ccccc34)n2)c(OC)cc1N(C)CCN(C)C [Example 9] | 99.7% | amorphous | 99.8% | 98.2% | (6.1) | >2 mg/mL | clear solution | (0.8) | >2 mg/mL | (4.3) | >2 mg/mL | clear solution | (4.8) | >2 mg/mL | clear solution | (2.0) |  | clear solution | clear solution | chemical and physical stability at the end of the preparation ([1]; listed as 1 eq. maleate salt): chemically and physically stable; chemical and physical stability at the end of the preparation [1, 15]: chemically and physically stable; chemical and physical stability after storage (summary) ([2]; listed as 1 eq. maleate salt): chemically unstable; also recorded: physically unstable; chemical and physical stability after storage (summary) [2, 15]: chemically unstable; also recorded: physically unstable; physical and chemical stability under storage (in words) ([2]; solid/25° C./60% RH/open/1 week, listed as amorphous 1 eq. maleate salt): slight color change and showed a certain hygroscopicity (agglomeration); decrease in purity ([2]; solid/60° C./closed container/1 week): about 2%; physical and chemical stability under storage (in words) ([2]; solid/60° C./closed container/1 week, listed as amorphous 1 eq. maleate salt): transformed from amorphous to a low crystallinity; solubility at 2 h ([3]; SGF, pH 2, simulated gastric fluid, Test ES5: SGF (pH 2.0), 37° C., based on free base, read-out: Solubility measured at 2 h): > 2000 µg/mL
C=CC(=O)Nc1cc(Nc2ncnc(-c3cn(C)c4ccccc34)n2)c(OC)cc1N(C)CCN(C)C [Example 5] | 99.9% | amorphous | 99.9% | 99.8% | (6.2) | >2 mg/mL | clear solution | (0.7) | >2 mg/mL | (4.2) | >2 mg/mL | clear solution | (4.8) | >2 mg/mL | clear solution | (1.8) | >2 mg/mL | clear solution | clear solution | chemical and physical stability at the end of the preparation ([1]; listed as 2 eq. mesylate salt): chemically and physically stable; chemical and physical stability at the end of the preparation [1, 16]: chemically and physically stable; chemical and physical stability after storage (summary) ([2]; listed as 2 eq. mesylate salt): physically unstable; chemical and physical stability after storage (summary) [2, 16]: physically unstable; physical and chemical stability under storage (in words) ([2]; solid/25° C./60% RH/open/1 week, listed as amorphous 2 eq. mesylate salt): transformed from amorphous to a low crystallinity and showed a certain hygroscopicity (agglomeration); physical and chemical stability under storage (in words) ([2]; solid/60° C./closed container/1 week, listed as amorphous 2 eq. mesylate salt): a certain hygroscopicity (partial agglomeration)
